In patent publication US20050107447A1, “Novel lysophosphatidic acid receptor agonists and antagonists” (priority 2003, published 2005):
Several values for one entry are separate records, joined by “and”; a condition that tells them apart may be missing. Equal values may be shown once. Entries after “also recorded” stand apart in the source; their conditions may differ.

Tests used:
LPA1 [1] = molecular target: T1, LPA1 (Mus musculus, UniProt P61793); test: GTP[γ35S] binding, LPA1 transfected HEK293T (or RH7777) cell membranes; assay type: biochemical; parameters: expressed in transfected cells; host or cells: HEK293T (transient, with G protein plasmids); some results from RH7777 rat hepatoma membranes transfected with LPA1 DNA only; conditions: for EC50: agonist, GTP[γ35S] binding; for Potency at LPA1 relative to LPA: vs 1-oleoyl LPA
T1 sequence (P61793 whole entry): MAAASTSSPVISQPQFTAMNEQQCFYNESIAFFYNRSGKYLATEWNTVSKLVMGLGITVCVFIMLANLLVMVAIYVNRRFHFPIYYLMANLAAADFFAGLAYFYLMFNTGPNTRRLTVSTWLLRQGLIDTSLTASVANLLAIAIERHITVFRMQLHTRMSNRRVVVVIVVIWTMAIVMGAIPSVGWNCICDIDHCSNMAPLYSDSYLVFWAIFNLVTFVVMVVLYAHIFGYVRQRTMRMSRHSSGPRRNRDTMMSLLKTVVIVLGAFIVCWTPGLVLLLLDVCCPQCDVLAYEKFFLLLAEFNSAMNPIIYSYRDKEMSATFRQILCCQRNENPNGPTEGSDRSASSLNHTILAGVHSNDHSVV
Method: (§1) The appropriate receptor plasmid DNA (encoding mouse LPA1, human LPA2 or human LPA3) was mixed with equal amounts of expression plasmids (pcDNA3) encoding a mutated (C351F) rat Gi2a, cow β1, and γ2 proteins and these DNAs were used to transfect monolayers of HEK293T cells (where ‘T’ indicates expression of the SV-40 virus large T antigen) using the calcium phosphate precipitate method. After about 60 hours, cells were harvested, membranes were prepared, aliquoted and stored at −70° C. until use.
(§2) The GTP[35 γS] assay was performed as described by us previously. Membranes containing 5 ug of protein were incubated in 0.1 ml GTP-binding buffer (in mM: HEPES 50, NaCl 100, MgCl2 10, pH7.5) containing […], […], 0.1 nM GTP[35 γS] (1200 Ci/mmol), and indicated lipid(s) for 30 minutes at 30° C. Samples were analyzed for membrane-bound radionuclide using a Brandel Cell Harvester (Gaithersburg, Md.).
(§3) The X-intercept of the linear transformation is equal to the inverse log of the κ1.
(§4) Membranes prepared from these cells are used to measure GTPγ[^35S] binding as a function of test compound concentration. The resulting dose-response curves provide relative potency (EC50) and efficacy, (Emax) for the test compounds.

LPA3 = molecular target: T2, LPA3 (Homo sapiens, UniProt Q9UBY5); test: GTP[γ35S] binding, LPA3 transfected HEK293T cell membranes; assay type: biochemical; parameters: expressed in transfected cells; host or cells: HEK293T (transient, calcium phosphate); conditions: for EC50: agonist, GTP[γ35S] binding
T2 sequence (Q9UBY5 1-353): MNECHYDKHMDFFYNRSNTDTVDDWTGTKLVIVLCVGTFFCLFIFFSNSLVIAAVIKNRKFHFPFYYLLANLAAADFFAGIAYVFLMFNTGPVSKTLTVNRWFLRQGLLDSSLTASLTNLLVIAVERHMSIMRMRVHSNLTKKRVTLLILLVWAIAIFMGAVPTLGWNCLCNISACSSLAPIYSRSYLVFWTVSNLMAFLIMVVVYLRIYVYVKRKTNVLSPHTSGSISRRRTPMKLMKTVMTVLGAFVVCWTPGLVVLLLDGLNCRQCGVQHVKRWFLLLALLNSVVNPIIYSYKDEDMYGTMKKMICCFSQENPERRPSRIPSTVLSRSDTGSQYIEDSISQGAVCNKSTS
Method: as §1, §2, §3, §4

LPA2 = LPA2 (Homo sapiens, UniProt Q9HBW0); test: GTP[γ35S] binding, LPA2 transfected HEK293T cell membranes; assay type: biochemical; parameters: expressed in transfected cells; host or cells: HEK293T (transient, calcium phosphate); conditions: for EC50: agonist, GTP[γ35S] binding
LPA2, sequence (Q9HBW0 whole entry): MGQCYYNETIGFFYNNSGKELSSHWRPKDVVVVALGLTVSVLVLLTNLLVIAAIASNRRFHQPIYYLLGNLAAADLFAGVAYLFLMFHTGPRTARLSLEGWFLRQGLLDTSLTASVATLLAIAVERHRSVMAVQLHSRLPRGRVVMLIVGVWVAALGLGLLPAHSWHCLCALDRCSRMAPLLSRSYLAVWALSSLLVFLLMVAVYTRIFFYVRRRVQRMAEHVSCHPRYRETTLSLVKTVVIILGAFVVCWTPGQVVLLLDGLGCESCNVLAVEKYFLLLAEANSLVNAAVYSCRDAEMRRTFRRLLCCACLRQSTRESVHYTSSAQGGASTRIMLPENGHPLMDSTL
Method: as §1, §2, §3, §4

LPA receptors = test: Whole cell assays of calcium mobilization or inhibition of cAMP accumulation (agonist activity); assay type: cell-based
Method: (§5) Assays for cAMP accumulation were conducted on populations of 5×10^5 cells stimulated with […] in the presence of the phosphodiesterase inhibitor isomethylbutylxanthine (IBMX) for 15 minutes at 30° C. cAMP was measured by automated radioimmunoassay.
A FLIPR™ (Molecular Devices, Inc.) was used to measure intracellular calcium in A431 and HEK293T cells. A431 cells were seeded (−50,000 cells/well) in 96-well clear bottom black microplates (Corning Costar Corp., Cambridge, Mass.) and left overnight in CO2 incubator at 37° C. HEK293T cells were treated likewise, but seeded onto poly D-lysine coated microplates (Becton Dickinson, Franklin Lakes, N.J.). A431 cells were dye-loaded with 4 μM Fluo-3 AM ester (Molecular Probes Inc., Eugene, Oreg.) in a loading buffer (1×HBSS buffer, pH 7.4, containing 20 mM HEPES, 0.1% BSA, and 2.5 mM probenecid) for 1 hour at 37° C. Cells were then washed four times with the loading buffer and exposed in the FLIPR™ to sets of compounds. HEK293T cells were loaded with 2 μM Fluo-4 AM ester (Molecular Probes Inc., Eugene, Oreg.) in the same loading buffer without probenecid for 30 minutes and washed four times before being exposed to compounds in the FLIPR™. […]
(§6) The same activity was determined with human LPA1 using a recombinant baculovirus-infected insect Sf9 cell membrane preparation.

human LPA1 = molecular target: T3, human LPA1 (Homo sapiens, UniProt Q92633); test: GTP[γ35S] binding, recombinant baculovirus-infected insect Sf9 cell membrane preparation; assay type: biochemical; conditions: Sf9 membranes
T3 construct: expressed in transfected cells; host or cells: Sf9 insect cells, recombinant baculovirus
T3 sequence (Q92633 whole entry): as the sequence (P61793 whole entry) above, with A4I, S8I, Q22P, Y40H, V61I, D193E, H194N, V269I, N331S, N335T counted along it
Method: as §6

[2] = tested on: renal injury following ischemia-reperfusion (IR); test: Renal ischemia-reperfusion model; assay type: in vivo, mouse; conditions: for Plasma creatinine: 24 hrs of reperfusion, n=4
Method: C57BL6 mice (20 gm, 8 wks of age) were used for all studies. The surgical protocol of renal IR has been previously described (Okusa et al., 1999. Am. J. Physiol. (Renal Physiol.) 277: F404-412; Okusa, et al., 2000 Am. J. Physiol. (Renal Physiol.) 279; F809-F818, and Okusa et al., 2001 Kidney Int. 59:2114-2125). For the injury protocol, bilateral flank incisions were made under anesthesia with a regimen that consists of ketamine (100 mg/kg, ip.), xylazine (10 mg/kg, ip.) and acepromazine (1 mg/kg, im.). Renal pedicles were exposed and cross-clamped for 27-32 min. Kidneys were examined for immediate reperfusion following clamp removal. Wounds were closed and mice were returned to cages. […] The mice were sacrificed and the kidneys harvested at 1, 4, 8, 24, 48 hrs, 5 and 7 days. […] Mice were sacrificed following 24 hrs of reperfusion and plasma was obtained for BUN and creatinine.

LPA1 [3] = molecular target: T1, LPA1; test: cAMP accumulation in RH7777 cells stably expressing LPA1; assay type: cell-based; parameters: expressed in transfected cells; conditions: RH7777 cells stably expressing LPA1
Method: as §5
Rat hepatoma RH7777 cell monolayers were transfected with the mLPA1 plasmid DNA using the calcium phosphate precipitate method and clonal populations expressing the neomycin phosphotransferase gene were selected by addition of geneticin (G418) to the culture media. The RH7777 cells were grown in monolayers at 37° C. in a 5% CO02/95% air atmosphere in growth media consisting of: 90% MEM, 10% fetal bovine serum, 2 mM glutamine and 1 mM sodium pyruvate.
wls-b8L and the other phosphonates were also tested also for activity in three whole cell assays. […] Finally, the activity of wls-b8L in activating a chloride conductance in Xenopus laevis ooctyes was measured.

[4] = tested on: HEK293T cells (express LPA1 and LPA3, not LPA2); test: Block of LPA-induced rises in free intracellular calcium in HEK293T cells (FLIPR); assay type: cell-based; conditions: specificity control
Excerpt: as §3

| Compound | Emax (LPA1 [1]) | EC50 (LPA1 [1]) | EC50 (LPA3) | Emax (LPA2) | EC50 (LPA2) | Emax (LPA3) | also measured |
| --- | --- | --- | --- | --- | --- | --- | --- |
| CCCCCCCC/C=C\CCCCCCCC(=O)N[C@@H](CO)COP(=O)(O)O [VPC31144] | 91.1% | > 5 µM | 4.35 µM | 77.3% | 2.64 µM |  |  |
| CCCCCCCC/C=C\CCCCCCCC(=O)N[C@H](COP(=O)(O)O)C(C)C [compound 40105] | 14.8% | > 5 µM | > 5 µM | 27.6% | > 5 µM | 27.7% |  |
| CCCCCCCC/C=C\CCCCCCCC(=O)N[C@@H](C)COP(=O)(O)O [VPC12101] | 48.1% | 2.9 µM | > 5 µM | 6.9% | > 5 µM | 9.7% |  |
| CCCCCCCC/C=C\CCCCCCCC(=O)N[C@H](COP(=O)(O)O)Cc1ccccc1 [VPC12255] |  | > 5 µM | > 5 µM |  | > 5 µM |  |  |
| CCCCCCCC/C=C\CCCCCCCC(=O)N[C@H](COP(=O)(O)O)Cc1ccc(OCc2ccccc2)cc1 [VPC12249] |  |  |  |  |  |  | Agonist activity in whole cell assays (LPA receptors): completely devoid of agonist activity; Antagonism of LPA-induced GTP[γ35S] binding at LPA3 (LPA3): surmountable antagonist; Ki (LPA3; Schild regression, block of LPA-induced GTP[γ35S] binding): 0.428 µM and ~0.425 µM; Antagonism of LPA-induced GTP[γ35S] binding at LPA2 (LPA2): lack of antagonist activity; Antagonist activity at human LPA1 (human LPA1): same activity; Plasma creatinine ([2]; 0.01 mg/kg/2 hrs): 1.06±0.25; H and E sections, tissue preservation ([2]; 1 mg/kg/2 hr): marked degree of tissue preservation; Plasma creatinine ([2]; 1.0 mg/kg/2 hrs): 0.31±0.4; Block of LPA1-mediated inhibition of forskolin-induced cAMP increase (LPA1 [3]): inhibited; Antagonism of ATP-evoked calcium transients [4]: lack of antagonism |
| CCCCCCCC/C=C\CCCCCCCC(=O)N[C@@H](COP(=O)(O)O)Cc1ccc(OCc2ccc(CCCCC)cc2)cc1 [VPC31162] |  |  |  |  |  |  | Agonist activity/efficacy at LPA1 (LPA1 [1]; compared to LPA): agonist; Agonist activity/efficacy at LPA3 (LPA3; compared to LPA): agonist; Antagonism of LPA-induced GTP[γ35S] binding at LPA2 (LPA2): antagonist activity |
| CCCCCCCC/C=C\CCCCCCCC(=O)N[C@@H](CN)COP(=O)(O)O [VPC12048] | 9.4% | > 5 µM | > 5 µM | 36.4% | > 5 µM | 3.8% |  |
| CCCCCCCC/C=C\CCCCCCCC(=O)N[C@@H](CC)COP(=O)(O)O [VPC12115] | 62.3% | 1.58 µM | 4.98 µM | 85.6% | 4.28 µM | 89.3% |  |
| CCCCCCCC/C=C\CCCCCCCC(=O)N[C@H](COP(=O)(O)O)C(=O)OC [VPC31180] | 50.6% | 1.21 µM | > 5 µM | 60.2% | 3.46 µM | 3.8% |  |

Further compounds by falling EC50 (LPA3), results first:

| Emax (LPA1 [1]) | EC50 (LPA1 [1]) | EC50 (LPA3) | Emax (LPA2) | EC50 (LPA2) | Emax (LPA3) | Compound | also measured |
| --- | --- | --- | --- | --- | --- | --- | --- |
| 51% | 0.0738 µM | 3.81 µM | 85.8% | 0.799 µM | 45.3% | CCCCCCCC/C=C\CCCCCCCC(=O)N[C@@H](COP(=O)(O)O)C(C)C [VPC12098] |  |
| 66.2% | 0.0185 µM | 1.48 µM | 91.3% | 0.0292 µM | 84.4% | CCCCCCCC/C=C\CCCCCCCC(=O)N[C@@H](COP(=O)(O)O)C(=O)OC [VPC31139] |  |
| 66.8% | 0.0358 µM | 1.08 µM | 92.6% | 0.162 µM | 83.5% | CCCCCCCC/C=C\CCCCCCCC(=O)N[C@H](CC)COP(=O)(O)O [VPC12109] |  |
| 98.7% | 0.0049 µM | 0.684 µM | 103% | 0.0503 µM | 103% | CCCCCCCC/C=C\CCCCCCCC(=O)N[C@H](CN)COP(=O)(O)O [VPC12178] | Potency at LPA1 relative to LPA (LPA1 [1]): more potent than 1-oleoyl LPA |
| 23.7% | 0.0384 µM | 0.351 µM | 97% | 0.268 µM | 78.7% | CCCCCCCC/C=C\CCCCCCCC(=O)N[C@@H](COP(=O)(O)O)Cc1ccccc1 [VPC12084] | Antagonism of LPA-induced GTP[γ35S] binding at LPA1 (LPA1 [1]): did block LPA activity; Agonist activity in whole cell assays (LPA receptors): appreciable agonist activity |
| 161% | 0.0079 µM | 0.322 µM | 105% | 0.116 µM | 107% | CCCCCCCC/C=C\CCCCCCCC(=O)N[C@H](CO)COP(=O)(O)O [VPC31143] | Potency at LPA1 relative to LPA (LPA1 [1]): more potent than 1-oleoyl LPA |
|  |  | 0.263 µM |  | 0.0068 µM |  | 1-acyl, 2-hydroxyl-sn-glycerol-3-phosphate [LPA, reference compound] | LPA3 Emax (LPA3; LPA = 100): 100 |
| 108% | 0.0034 µM | 0.113 µM | 95.2% | 0.0183 µM | 93.4% | CCCCCCCC/C=C\CCCCCCCC(=O)N[C@H](C)COP(=O)(O)O [VPC12086] | Potency at LPA1 relative to LPA (LPA1 [1]): more potent than 1-oleoyl LPA; also recorded: more potent and efficacious than LPA |
